Data taken from publication PMC8051587 (ACS chemical biology, 2020).
“And” between values parts separate entries of the source, which are not always exact repeats. Equal values may be shown once.

Legend:
M2 WT = conditions: read-out: apparent Ki; block of M2 WT; cited from earlier work
[1] = molecular target: T1, full-length A/Udorn/72 M2 WT (Influenza A virus, UniProt P0DOF5); conditions: 100 μM, mean ± SEM at 2 min of drug perfusion; ref [3]; cited from earlier work
[2] = molecular target: T1, full-length A/Udorn/72 M2 WT
A/WSN/33 = conditions: plaque reduction assay; cited from earlier work

T1 sequence (P0DOF5 whole entry, the tested form may be a part): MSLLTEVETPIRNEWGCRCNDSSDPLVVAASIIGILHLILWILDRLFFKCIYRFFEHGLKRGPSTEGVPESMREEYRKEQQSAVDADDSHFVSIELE

SMILES	Ki (M2 WT) [nM]	Percent Block (%) [1]	Kd ([2]; calculated from the ratio koff/kon) [nM]	koff ([2]; inferred from extent of block and perfusion-limited block rate) [s⁻¹]	EC50 (A/WSN/33) [nM]
NC12CC3CC(CC(C3)C1)C2 [Amantadine, amantadine]	300				
c1csc(-c2cc(CNC34CC5CC(CC(C5)C3)C4)on2)c1 [Compound 6]		11% and 11 ± 1^g %	> 100000	> 1	~100
